Reference: patent US12692248B2, “Solid state forms of (S)-N-(3-(2-(((R)-1-hydroxypropan-2-yl)amino)-6-morpholinopyridin-4-yl)-4-methylphenyl)-3-(2,2,2-trifluoroethyl)pyrrolidine-1-carboxamide and salts thereof” (PIERRE FABRE MEDICAMENT, priority 2021, dated 2026)
Where two headings read alike, the source gives them in different places.

Tests used:
Format in all cases: physicochemical
[1] = Dynamic Vapor Sorption (DVS); conditions: DVS
Description: Dynamic Vapor Sorption (DVS) Moisture sorption/desorption data was collected on a DVS Intrinsic PLUS (SMS, UK). The sample was placed into a tared sample chamber and automatically weighed. The sample was dried at 40° C./0%0 RH until the dm/dt was less than 0.00200 and cooled to 25° C. [table]

[2] = Comparison dissolution trials in water and biorelevant media; conditions: for solubility at 0.5 h: read-out: Solubility (mg/mL) 0.5 h; for solubility at 2 h: read-out: Solubility (mg/mL) 2 h; for solubility at 24 h: read-out: Solubility (mg/mL) 24 h
Description: Comparison dissolution trials were performed on Compounds 1 and 2. About 20 mg of each sample was weighed into a sample vial and then 4 mL of media was added to make a suspension. All suspensions were shaken at 37° C. with a rate of 200 rpm. […] He pH of the filtrate was measured, and the filter cake was analyzed by XRPD. […] In biorelevant dissolution media FaSSIF and FeSSIF, the solubility of the Compound 1 and Compound 2 were similar.

[3] = Stability at 60° C. and 40° C. at 75% relative humidity for 9 days (UPLC purity, XRPD); conditions: UPLC; for Purity −3 d: 3 days; for Purity −9 d: 9 days
Description: Compound 1 and Compound 2 were evaluated for stability at 60° C. and 40° C. at 75% relative humidity for 9 days. At 0, 3, and 9 days, the samples were dissolved with diluent to prepare a solution for purity analysis by UPLC. Solid samples were also analyzed by XRPD to check the crystal form.

[4] = Stability of Compound 2 in 0.5% MC/0.1% Tween 80 at 10 mg/mL; conditions: suspension 10 mg/mL in 0.5% MC/0.1% Tween 80, RT, 7 days
Description: A solution of Compound 2 was evaluated for stability in 0.5% MC/0.1% Tween 80 at 10 mg/mL. 10.7 mg of Compound 2 was weighed into a sample vial, and then 500 μL of 1% MC and 500 μL of 0.2% Tween 80 were added to obtain a suspension at 10 mg/mL (calculated as the free base). The mixture was kept stirring for 15 min at RT and the suspension was placed at RT for 7 days.

[5] = Thermodynamic solubility in 13 solvents at RT and 50° C. by UPLC; conditions: for solubility: thermodynamic from solid; for XRPD at 1 d / XRPD at 4 d: residual solid
Description: Thermodynamic solubility of Compound 2 was measured in 13 solvents at RT and 50° C. by UPLC, respectively. […] In most of other selected solvents, the compound was almost insoluble (<0.5 mg/mL) except in EtOH and water where it was slightly soluble (6-9 mg/mL).

[6] = simulated gastric fluid, thermodynamic from solid, SGF, 37° C.
[7] = thermodynamic from solid, FaSSIF, 37° C.
[8] = thermodynamic from solid, FeSSIF, 37° C.
[9] = thermodynamic from solid, Water, 37° C.

Cc1ccc(NC(=O)N2CC[C@@H](CC(F)(F)F)C2)cc1-c1cc(N[C@H](C)CO)nc(N2CCOCC2)c1.Cl [Compound 2, (S)—N-(3-(2-(((R)-1-hydroxypropan-2-yl)amino)-6-morpholinopyridin-4-yl)-4-methylphenyl)-3-(2,2,2-trifluoroethyl)pyrrolidine-1-carboxamide hydrochloride]
hygroscopicity [1]: slightly hydroscopic
water uptake at 80% RH ([1]; 25° C., 80% relative humidity): 0.66%
water uptake at 90% relative humidity ([1]; 25° C., 90% relative humidity): 0.95%
solubility of Compound 1 and Compound 2 compared ([2]; FaSSIF and FeSSIF): similar
pH of the filtrate ([2]; Water medium): (pH 3.1)
solubility at 0.5 h [2, 6]: 0.2 mg/mL
solubility at 2 h [2, 6]: 0.27 mg/mL
solubility at 24 h [2, 6]: 0.39 mg/mL
solubility at 0.5 h [2, 7]: 0.024 mg/mL
solubility at 2 h [2, 7]: 0.021 mg/mL
solubility at 24 h [2, 7]: 0.027 mg/mL
solubility at 0.5 h [2, 8]: 0.21 mg/mL
solubility at 2 h [2, 8]: 0.2 mg/mL
solubility at 24 h [2, 8]: 0.23 mg/mL
solubility at 0.5 h [2, 9]: 1.42 mg/mL
solubility at 2 h [2, 9]: 1.36 mg/mL
solubility at 24 h [2, 9]: 2.49 mg/mL
solubility ([2]; thermodynamic from solid, water, 37° C.): ~2500 µg/mL
Purity −0 d (Area %) ([3]; 0 days (initial)): 99.77 Area %
Purity −3 d ([3]; 40° C./75% RH): 99.74 Area %
Purity −9 d ([3]; 40° C./75% RH): 99.76 Area %
Purity −3 d ([3]; 60° C.): 99.73 Area %
Purity −9 d ([3]; 60° C.): 99.74 Area %
form change [4]: No form change
purity decrease ([4]; UPLC): 0.13%
solubility ([5]; ACN, 50 °C, organic solvent or mixture, ACN, 50° C., read-out: Solubility at 50° C.(mg/mL)): 0.92 mg/mL
solubility ([5]; ACN, organic solvent or mixture, ACN, RT, read-out: Solubility at RT): 0.01 mg/mL
solubility ([5]; EA, 50 °C, organic solvent or mixture, EA, 50° C., read-out: Solubility at 50° C.(mg/mL)): 0.09 mg/mL
solubility ([5]; EA, organic solvent or mixture, EA, RT, read-out: Solubility at RT): 0.06 mg/mL
solubility ([5]; EtOH and water, water, EtOH and water (slightly soluble), read-out: solubility): 6 to 9 mg/mL
solubility ([5]; EtOH, 50 °C, organic solvent or mixture, EtOH, 50° C., read-out: Solubility at 50° C.(mg/mL)): 8.82 mg/mL
solubility ([5]; EtOH, organic solvent or mixture, EtOH, RT, read-out: Solubility at RT): 7.15 mg/mL
solubility ([5]; Hept, 50 °C, organic solvent or mixture, Hept, 50° C., read-out: Solubility at 50° C.(mg/mL)): 0.01 mg/mL
solubility ([5]; Hept, organic solvent or mixture, Hept, RT, read-out: Solubility at RT): 0.01 mg/mL
solubility ([5]; IPA, 50 °C, organic solvent or mixture, IPA, 50° C., read-out: Solubility at 50° C.(mg/mL)): 2.8 mg/mL
solubility ([5]; IPA, organic solvent or mixture, IPA, RT, read-out: Solubility at RT): 1.69 mg/mL
solubility ([5]; IPAC, 50 °C, organic solvent or mixture, IPAC, 50° C., read-out: Solubility at 50° C.(mg/mL)): 0.03 mg/mL
solubility ([5]; IPAC, organic solvent or mixture, IPAC, RT, read-out: Solubility at RT): 0.02 mg/mL
solubility ([5]; MEK, 50 °C, organic solvent or mixture, MEK, 50° C., read-out: Solubility at 50° C.(mg/mL)): 0.28 mg/mL
solubility ([5]; MEK, organic solvent or mixture, MEK, RT, read-out: Solubility at RT): 0.01 mg/mL
solubility ([5]; MIBK, 50 °C, organic solvent or mixture, MIBK, 50° C., read-out: Solubility at 50° C.(mg/mL)): 0.11 mg/mL
solubility ([5]; MIBK, organic solvent or mixture, MIBK, RT, read-out: Solubility at RT): 0.05 mg/mL
solubility ([5]; MTBE, 50 °C, organic solvent or mixture, MTBE, 50° C., read-out: Solubility at 50° C.(mg/mL)): 0.01 mg/mL
solubility ([5]; MTBE, organic solvent or mixture, MTBE, RT, read-out: Solubility at RT): 0.02 mg/mL
solubility ([5]; MeOH, 50 °C, organic solvent or mixture, MeOH, 50° C., read-out: Solubility at 50° C.(mg/mL)): ~102 mg/mL
Solubility at RT ([5]; MeOH, RT, hydrochloride): 54670 µg/mL
solubility ([5]; MeOH, organic solvent or mixture, MeOH, RT, read-out: Solubility at RT): ~55 mg/mL
solubility ([5]; acetone, 50 °C, organic solvent or mixture, Acetone, 50° C., read-out: Solubility at 50° C.(mg/mL)): 0.45 mg/mL
solubility ([5]; acetone, organic solvent or mixture, Acetone, RT, read-out: Solubility at RT): 0.65 mg/mL
solubility ([5]; cyclohexane, 50 °C, organic solvent or mixture, Cyclohexane, 50° C., read-out: Solubility at 50° C.(mg/mL)): 0.05 mg/mL
solubility ([5]; cyclohexane, organic solvent or mixture, Cyclohexane, RT, read-out: Solubility at RT): 0.01 mg/mL
solubility ([5]; organic solvent or mixture, most of other selected solvents (almost insoluble), read-out: solubility): < 0.5 mg/mL
XRPD at 1 d ([5]; ACN, 50° C.): Form I
XRPD at 4 d ([5]; ACN, RT): Form I
XRPD at 1 d ([5]; Acetone, 50° C.): Form I
XRPD at 4 d ([5]; Acetone, RT): Form I
XRPD at 1 d ([5]; Cyclohexane, 50° C.): Form I
XRPD at 4 d ([5]; Cyclohexane, RT): Form I
XRPD at 1 d ([5]; EA, 50° C.): Form I
XRPD at 4 d ([5]; EA, RT): Form I
XRPD at 1 d ([5]; EtOH, 50° C.): Form I
XRPD at 4 d ([5]; EtOH, RT): Form I
XRPD at 1 d ([5]; Hept, 50° C.): Form I
XRPD at 4 d ([5]; Hept, RT): Form I
XRPD at 1 d ([5]; IPA, 50° C.): Form I
XRPD at 4 d ([5]; IPA, RT): Form I
XRPD at 1 d ([5]; IPAC, 50° C.): Form I
XRPD at 4 d ([5]; IPAC, RT): Form I
XRPD at 1 d ([5]; MEK, 50° C.): Form I
XRPD at 4 d ([5]; MEK, RT): Form I
XRPD at 1 d ([5]; MIBK, 50° C.): Form I
XRPD at 4 d ([5]; MIBK, RT): Form I
XRPD at 1 d ([5]; MTBE, 50° C.): Form I
XRPD at 4 d ([5]; MTBE, RT): Form I
XRPD at 1 d ([5]; MeOH, 50° C.): Form I
XRPD at 4 d ([5]; MeOH, RT): Form I
XRPD at 1 d ([5]; Water, 50° C.): Form I
XRPD at 4 d ([5]; Water, RT): Form I
form change during the solubility testing ([5]; residual solids by XRPD): no form change
solubility ([5]; water, 50 °C, water, Water, 50° C., read-out: Solubility at 50° C.(mg/mL)): 6.73 mg/mL
solubility ([5]; water, Water, RT, read-out: Solubility at RT): 6.15 mg/mL
